The source of these data is patent publication US20260231994A1, “TASTE-ENHANCING COMPOSITION, METHOD FOR PRODUCING SAME, FOOD PRODUCT, AND METHOD FOR ENHANCING TASTE OF FOOD PRODUCT” (HOUSE FOODS GROUP INC., priority 2023, published 2026).

Holding throughout (type): in vivo
The nature of test [1]: Experiment 6 sensory evaluation of cyclic dipeptides, “top sharp saltiness”. The protocol: (§1) An aqueous solution in which the concentration of each of the cyclic dipeptides shown in the table described below is set to be the same as its concentration in the heat-treated coriander prepared in 1.1. described above, as estimated from the ratio of the peak area of the cyclic dipeptides to the peak area of the internal standard (47 μg/g of L-lysine-^13C6 monohydrochloride) (hereinafter referred to as “heat-treated coriander equivalent aqueous solution”) was prepared. An aqueous solution in which the concentration of each of the cyclic dipeptides is set to be the same as its concentration in the heat-treated paprika of Example 203 prepared in 2.1 described above (hereinafter referred to as “heat-treated paprika equivalent aqueous solution”) was also prepared. Cyclic dipeptides prepared by the applicant were used in this experiment. As a cyclic dipeptide comprising Leu/Ile, a mixture comprising equal parts of cyclic dipeptide comprising Leu and cyclic dipeptide comprising Ile was used.
(§2) Common and reduced-sodium curry rouxes were prepared according to the procedures described in (1) and (2) of 1.3. described above.
(§3) Two dispersions of 44 g of the aforesaid reduced-sodium curry roux dispersed in 300 g of hot water were prepared. To one of them was added the heat-treated coriander equivalent solution or heat-treated paprika equivalent aqueous solution of the individual cyclic dipeptides shown in the table described below so as to be in the final concentration of 0.5% (w/w) or 1.0% (w/w), respectively.
(§4) Forty-four grams of the aforesaid common curry roux was dispersed in 300 g of hot water.
(§5) The dispersion of reduced-sodium curry roux dispersed in hot water and the dispersion of common curry roux dispersed in hot water were used as comparative controls, and the strength of the flavor was evaluated by three evaluators on the basis of the following evaluation criteria from the viewpoint of “top sharp saltiness”, “middle fullness (enhanced thickness) and “boosting of last flavor (aftertaste).”
(§6) The average of the evaluated scores was defined as “F” when it was 1.0 or lower, “C” when it was 1.1 or higher and 1.9 or lower, “B” when it was 2.0 or higher and 2.5 or lower, “A” when it was 2.6 or higher and 2.9 or lower, and “AA” when it was 3.0 or higher.
(§7) In the table described below, “ID” refers to the compound ID described above. The items of “coriander 0.5%” and “coriander 1.0%” refer to the addition of the aforesaid heat-treated coriander equivalent aqueous solution of cyclic dipeptide so that the final concentrations may be 0.5% (w/w) and 1.0% (w/w), respectively. The items of “paprika 0.5%” and “paprika 1.0%” refer to the addition of the aforesaid heat-treated paprika equivalent aqueous solution of cyclic dipeptide so that the final concentration may be 0.5% (w/w) and 1.0% (w/w), respectively.

Test [2] is described as follows: Experiment 6 sensory evaluation of cyclic dipeptides, “middle fullness (enhanced thickness)”. Here is the method: as §1, §2, §3, §4, §5, §6, §7
Test [3] is described as follows: Experiment 6 sensory evaluation of cyclic dipeptides, “boosting of last flavor (aftertaste)”. The protocol:
as §1, §2, §3, §4, §5, §6, §7

[4] abbreviates: Additive amount coriander 0.5% (heat-treated coriander equivalent aqueous solution, final 0.5% (w/w)), reduced-sodium curry roux.
[5] abbreviates: Additive amount coriander 0.5%, reduced-sodium curry roux.
Setting [6] is: heat-treated coriander equivalent aqueous solution of cyclic dipeptide, final 1.0% (w/w) in reduced-sodium curry roux dispersion.
Setting [7] is: heat-treated coriander equivalent aqueous solution of cyclic dipeptide, final 1.0% (w/w) in reduced-sodium curry roux dispersion, 3 evaluators.
Setting [8] is: Additive amount paprika 0.5% (heat-treated paprika equivalent aqueous solution, final 0.5% (w/w)), reduced-sodium curry roux.
The mark [9] stands for this setting: Additive amount paprika 0.5%, reduced-sodium curry roux.
Setting [10] is: heat-treated paprika equivalent aqueous solution of cyclic dipeptide, final 1.0% (w/w) in reduced-sodium curry roux dispersion.
[11] abbreviates: heat-treated paprika equivalent aqueous solution of cyclic dipeptide, final 1.0% (w/w) in reduced-sodium curry roux dispersion, 3 evaluators.

In the case of cyclic (Phe-Phe) [Coriander ID 43], the entries for the “Top sharp saltiness Average” value in test [1] (setting [4]) and in test [1] (setting [7]) were 2.3 points and 2.8 points, respectively. Further, the “Top sharp saltiness Evaluation” value was “B (“B” when it was 2.0 or higher and 2.5 or lower)” in test [1] (setting [5]); “A (“A” when it was 2.6 or higher and 2.9 or lower)” in test [1] (setting [6]). For the same substance, the “Middle fullness Average” value in test [2] (setting [5]) is given as 2.3 points; in test [2] (setting [7]) it was 2.7 points. Also, the “Middle fullness Evaluation” value in test [2] (setting [5]) was “B (“B” when it was 2.0 or higher and 2.5 or lower)”; in test [2] (setting [6]), “A (“A” when it was 2.6 or higher and 2.9 or lower)”. Besides, the “Bosting of last flavor Average” value in test [3] (setting [5]) was determined as 3.2 points; in test [3] (setting [7]), 2.7 points. Moreover, the “Bosting of last flavor Evaluation” value in test [3] (setting [5]) was “AA (“AA” when it was 3.0 or higher)”; in test [3] (setting [6]) it was “A (“A” when it was 2.6 or higher and 2.9 or lower)”.

Consider cyclic (Leu/Ile-Ser) [Coriander ID 24], for which the “Top sharp saltiness Average” value amounted to 2.9 points in test [1] (setting [8]) and 1.7 points in test [1] (setting [11]). Further, the “Top sharp saltiness Evaluation” value in test [1] (setting [9]) is “A (“A” when it was 2.6 or higher and 2.9 or lower)”; in test [1] (setting [10]) it was “C (“C” when it was 1.1 or higher and 1.9 or lower)”. Besides, the entries for the “Middle fullness Average” value in test [2] (setting [9]) and in test [2] (setting [11]) were 3.1 points and 1.8 points, respectively. Further, the “Middle fullness Evaluation” value in test [2] (setting [9]) is “AA (“AA” when it was 3.0 or higher)”; in test [2] (setting [10]), “C (“C” when it was 1.1 or higher and 1.9 or lower)”. Besides, the “Bosting of last flavor Average” value amounted to 2.9 points in test [3] (setting [9]) and 2.2 points in test [3] (setting [11]). Besides, the “Bosting of last flavor Evaluation” value in test [3] (setting [9]) was “A (“A” when it was 2.6 or higher and 2.9 or lower)”; in test [3] (setting [10]), “B (“B” when it was 2.0 or higher and 2.5 or lower)”.

Regarding cyclic (Gly-Ser) [Coriander ID 5], the “Top sharp saltiness Average” value in test [1] (setting [4]) is on record as 1.7 points; in test [1] (setting [7]), 1.8 points. For the same substance, the “Top sharp saltiness Evaluation” value in test [1] (setting [5]) is “C (“C” when it was 1.1 or higher and 1.9 or lower)”; in test [1] (setting [6]), “C (“C” when it was 1.1 or higher and 1.9 or lower)”. Also, the entries for the “Middle fullness Average” value in test [2] (setting [5]) and in test [2] (setting [7]) were 2.0 points and 2.3 points, respectively. Further, the “Middle fullness Evaluation” value in test [2] (setting [5]) is “B (“B” when it was 2.0 or higher and 2.5 or lower)”; in test [2] (setting [6]), “B (“B” when it was 2.0 or higher and 2.5 or lower)”. For the same substance, the “Bosting of last flavor Average” value in test [3] (setting [5]) is recorded as 2.2 points; in test [3] (setting [7]), 2.3 points. Further, the “Bosting of last flavor Evaluation” value in test [3] (setting [5]) was “B (“B” when it was 2.0 or higher and 2.5 or lower)”; in test [3] (setting [6]) it was “B (“B” when it was 2.0 or higher and 2.5 or lower)”.

For cyclic (Phe-Thr) [Coriander ID 37], the “Top sharp saltiness Average” value worked out at 1.8 points in test [1] (setting [8]) and 2.3 points in test [1] (setting [11]). In addition, the “Top sharp saltiness Evaluation” value in test [1] (setting [9]) was “C (“C” when it was 1.1 or higher and 1.9 or lower)”; in test [1] (setting [10]), “B (“B” when it was 2.0 or higher and 2.5 or lower)”. Moreover, the “Middle fullness Average” value amounted to 2.5 points in test [2] (setting [9]) and 2.2 points in test [2] (setting [11]). Moreover, the “Middle fullness Evaluation” value is “B (“B” when it was 2.0 or higher and 2.5 or lower)” in test [2] (setting [9]); “B (“B” when it was 2.0 or higher and 2.5 or lower)” in test [2] (setting [10]). For the same substance, the “Bosting of last flavor Average” value is given as 2.7 points in test [3] (setting [9]) and 2.3 points in test [3] (setting [11]). Also, the “Bosting of last flavor Evaluation” value in test [3] (setting [9]) was “A (“A” when it was 2.6 or higher and 2.9 or lower)”; in test [3] (setting [10]) it was “B (“B” when it was 2.0 or higher and 2.5 or lower)”.

Regarding cyclic (Tyr-His) [Coriander ID 50], the results for the “Top sharp saltiness Average” value in test [1] (setting [4]) and in test [1] (setting [7]) were 2.3 points and 3.3 points, respectively. For the same substance, the “Top sharp saltiness Evaluation” value in test [1] (setting [5]) was “B (“B” when it was 2.0 or higher and 2.5 or lower)”; in test [1] (setting [6]), “AA (“AA” when it was 3.0 or higher)”. In addition, the “Middle fullness Average” value in test [2] (setting [5]) is given as 2.5 points; in test [2] (setting [7]) it was 3.3 points. Further, the “Middle fullness Evaluation” value in test [2] (setting [5]) is “B (“B” when it was 2.0 or higher and 2.5 or lower)”; in test [2] (setting [6]), “AA (“AA” when it was 3.0 or higher)”. Moreover, the “Bosting of last flavor Average” value in test [3] (setting [5]) is reported as 2.8 points; in test [3] (setting [7]), 3.0 points. The “Bosting of last flavor Evaluation” value in test [3] (setting [5]) was “A (“A” when it was 2.6 or higher and 2.9 or lower)”; in test [3] (setting [6]), “AA (“AA” when it was 3.0 or higher)”.

In the case of cyclic (Glu-Glu), the “Top sharp saltiness Average” value in test [1] (setting [8]) was determined as 2.0 points; in test [1] (setting [11]), 2.2 points. In addition, the “Top sharp saltiness Evaluation” value in test [1] (setting [9]) was “B (“B” when it was 2.0 or higher and 2.5 or lower)”; in test [1] (setting [10]), “B (“B” when it was 2.0 or higher and 2.5 or lower)”. The figures for the “Middle fullness Average” value in test [2] (setting [9]) and in test [2] (setting [11]) were 2.3 points and 2.5 points, respectively. Further, the “Middle fullness Evaluation” value is “B (“B” when it was 2.0 or higher and 2.5 or lower)” in test [2] (setting [9]); “B (“B” when it was 2.0 or higher and 2.5 or lower)” in test [2] (setting [10]). For the same substance, the “Bosting of last flavor Average” value worked out at 2.5 points in test [3] (setting [9]) and 2.2 points in test [3] (setting [11]). In addition, the “Bosting of last flavor Evaluation” value in test [3] (setting [9]) is “B (“B” when it was 2.0 or higher and 2.5 or lower)”; in test [3] (setting [10]), “B (“B” when it was 2.0 or higher and 2.5 or lower)”.

Turning to cyclic (Tyr-Asp), the figures for the “Top sharp saltiness Average” value in test [1] (setting [8]) and in test [1] (setting [11]) were 2.1 points and 2.5 points, respectively. Besides, the “Top sharp saltiness Evaluation” value in test [1] (setting [9]) was “B (“B” when it was 2.0 or higher and 2.5 or lower)”; in test [1] (setting [10]), “B (“B” when it was 2.0 or higher and 2.5 or lower)”. Moreover, the “Middle fullness Average” value in test [2] (setting [9]) was determined as 2.1 points; in test [2] (setting [11]) it was 2.8 points. Moreover, the “Middle fullness Evaluation” value in test [2] (setting [9]) was “B (“B” when it was 2.0 or higher and 2.5 or lower)”; in test [2] (setting [10]), “A (“A” when it was 2.6 or higher and 2.9 or lower)”. In addition, the “Bosting of last flavor Average” value in test [3] (setting [9]) is 2.1 points; in test [3] (setting [11]) it was 2.8 points. The “Bosting of last flavor Evaluation” value was “B (“B” when it was 2.0 or higher and 2.5 or lower)” in test [3] (setting [9]); “A (“A” when it was 2.6 or higher and 2.9 or lower)” in test [3] (setting [10]).

As for cyclic (Gly-Leu/Ile) [Coriander ID 25], the “Top sharp saltiness Average” value in test [1] (setting [8]) was 3.0 points; in test [1] (setting [11]) it was 2.8 points. Also, the “Top sharp saltiness Evaluation” value was “AA (“AA” when it was 3.0 or higher)” in test [1] (setting [9]); “A (“A” when it was 2.6 or higher and 2.9 or lower)” in test [1] (setting [10]). The “Middle fullness Average” value in test [2] (setting [9]) and in test [2] (setting [11]) was 2.7 points each time. In addition, the “Middle fullness Evaluation” value in test [2] (setting [9]) is “A (“A” when it was 2.6 or higher and 2.9 or lower)”; in test [2] (setting [10]) it was “A (“A” when it was 2.6 or higher and 2.9 or lower)”. Further, the “Bosting of last flavor Average” value in test [3] (setting [9]) was 3.0 points; in test [3] (setting [11]), 2.7 points. In addition, the “Bosting of last flavor Evaluation” value in test [3] (setting [9]) is “AA (“AA” when it was 3.0 or higher)”; in test [3] (setting [10]), “A (“A” when it was 2.6 or higher and 2.9 or lower)”.
